Data on one sequence can be found in PMC5057115, “Cathelicidins in the Tasmanian devil (Sarcophilus harrisii)” (Scientific Reports, 2016).

The subject of this data set is human red blood cells. Type of data set: cell-based. The settings on record: red cells of human, 24 h. As to the method:
Tissue expression of devil cathelicidin prepropeptides was determined by real-time PCR on a range of secretory, immune, reproductive, gastrointestinal and respiratory tissues, as well as BLAST searches of the milk transcriptome. Opportunistic tissue samples for real-time PCR were collected from Taronga Zoo (Sydney) from devils which were subject to euthanasia due to old age and advanced disease. […] Ltd. and their antimicrobial activity against bacterial and fungal pathogens determined by broth microdilution susceptibility assay according to clinical laboratory standards institute guidelines. Antimicrobial activity was expressed as minimum inhibitory concentration (MIC). Cytotoxicity was assessed in the human cell line A549 and haemolytic activity determined against human blood. Statistical significance of peptide effect on cell survival in comparison to the untreated control was calculated using a one sample t-test. Pouch microbiome analysis was performed on swabs from the pouch of lactating and non-lactating devils to detect changes in microbe populations. Pouch swab collection was carried out in accordance with the Save the Tasmanian Devil Program and was approved by the Animal Ethics Committee of the University of Sydney (permit number 681). page 3: […] Two antibiotics, ampicillin and tetracycline, were included as a positive control for bacteria, and the […] A well containing cells and media only was used as a “no drug” control to ensure that cultures grew normally. Bacteria were subcultured on Mueller Hinton agar (MHA) or Sheep blood agar (BA) for 24 hours at 35 °C for Staphylococcus spp., Pseudomonas spp., Enterococcus spp. and E.coli, with 5% CO2 for Streptococcus spp., K.pneumoniae, P.multocida, […] Similarly, fungi were subcultured on Sabouraud agar (SAB) at 35 °C for 24 hours prior to the test. Colonies were resuspended in saline and the OD530 measured with a McFarland reader. If necessary the suspension was diluted to 0.45-0.55 McFarland units with saline. […] Assays Antimicrobial activity was expressed as minimum inhibitory concentration (MIC), which was defined as the lowest concentration of cathelicidin preventing visible growth, relative to the negative control. Colonies which grew on agar plates were also counted. Cytotoxicity Cytotoxicity was assessed in the human A549 cell line maintained in Dulbecco’s Modification of Eagle’s Medium (DMEM) supplemented with 10% foetal bovine serum (FBS), 2mM L -glutamine, 50units/mL penicillin and 50μg/mL streptomycin. […] Following incubation for a further 24 hours, cell viability was determined using alamar blue (Invitrogen) which was added to each well. […]

Where no end group is shown, it is not given here.

For “KRMGIFHLFWAGLRKLGNLIKNKIQQGIENFLG [Saha-CATH3]”, the “haemolysis compared with the positive control” value is “below 7%”.
